Experimental data as given in ChEMBL document CHEMBL3351801, “Phragmalin-type limonoids with NF-κB inhibition from Chukrasia tabularis var. velutina” (Bioorg Med Chem Lett, 2014).

Key:
Format in all cases: cell-based
[1] = target: T1, Nuclear factor NF-kappa-B complex (Homo sapiens) (UniProt Q00653+P19838+Q04206); assay: Inhibition of LPS-induced NF-kappaB (unknown origin) expressed in HEK293 cells at 1 ug/ml after 4 hrs by luciferase reporter gene assay relative to LPS-treated control
[2] = target: T1, Nuclear factor NF-kappa-B complex (Homo sapiens); assay: Inhibition of LPS-induced NF-kappaB (unknown origin) expressed in HEK293 cells at 10 ug/ml after 4 hrs by luciferase reporter gene assay relative to LPS-treated control
[3] = target: T1, Nuclear factor NF-kappa-B complex (Homo sapiens); assay: Inhibition of LPS-induced NF-kappaB (unknown origin) expressed in HEK293 cells at 100 ug/ml after 4 hrs by luciferase reporter gene assay relative to LPS-treated control

T1 sequence (P19838 whole entry, looked up): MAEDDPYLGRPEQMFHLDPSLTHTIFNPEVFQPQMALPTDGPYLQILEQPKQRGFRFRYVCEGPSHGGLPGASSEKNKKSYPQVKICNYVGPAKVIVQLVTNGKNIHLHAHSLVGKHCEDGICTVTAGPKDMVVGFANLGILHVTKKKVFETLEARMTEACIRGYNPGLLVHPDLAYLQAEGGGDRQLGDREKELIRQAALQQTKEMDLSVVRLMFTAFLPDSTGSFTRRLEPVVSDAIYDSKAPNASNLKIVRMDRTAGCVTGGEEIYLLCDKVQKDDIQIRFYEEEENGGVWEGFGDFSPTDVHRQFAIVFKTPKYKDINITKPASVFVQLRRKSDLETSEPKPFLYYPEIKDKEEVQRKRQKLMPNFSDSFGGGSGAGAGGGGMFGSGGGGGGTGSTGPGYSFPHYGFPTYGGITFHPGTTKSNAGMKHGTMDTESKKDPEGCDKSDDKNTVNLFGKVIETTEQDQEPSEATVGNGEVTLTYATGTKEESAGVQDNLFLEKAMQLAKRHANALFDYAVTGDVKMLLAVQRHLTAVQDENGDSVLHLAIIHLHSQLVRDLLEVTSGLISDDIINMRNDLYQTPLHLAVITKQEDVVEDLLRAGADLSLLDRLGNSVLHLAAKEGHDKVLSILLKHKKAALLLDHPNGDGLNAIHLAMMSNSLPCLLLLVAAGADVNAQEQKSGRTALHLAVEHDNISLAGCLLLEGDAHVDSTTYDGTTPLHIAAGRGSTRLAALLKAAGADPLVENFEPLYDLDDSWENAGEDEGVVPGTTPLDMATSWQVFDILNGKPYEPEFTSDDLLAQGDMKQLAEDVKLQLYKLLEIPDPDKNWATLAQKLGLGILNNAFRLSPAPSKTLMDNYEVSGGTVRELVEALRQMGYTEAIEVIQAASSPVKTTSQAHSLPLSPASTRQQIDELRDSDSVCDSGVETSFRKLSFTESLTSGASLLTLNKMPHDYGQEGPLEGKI
T1 sequence (Q00653 whole entry, looked up): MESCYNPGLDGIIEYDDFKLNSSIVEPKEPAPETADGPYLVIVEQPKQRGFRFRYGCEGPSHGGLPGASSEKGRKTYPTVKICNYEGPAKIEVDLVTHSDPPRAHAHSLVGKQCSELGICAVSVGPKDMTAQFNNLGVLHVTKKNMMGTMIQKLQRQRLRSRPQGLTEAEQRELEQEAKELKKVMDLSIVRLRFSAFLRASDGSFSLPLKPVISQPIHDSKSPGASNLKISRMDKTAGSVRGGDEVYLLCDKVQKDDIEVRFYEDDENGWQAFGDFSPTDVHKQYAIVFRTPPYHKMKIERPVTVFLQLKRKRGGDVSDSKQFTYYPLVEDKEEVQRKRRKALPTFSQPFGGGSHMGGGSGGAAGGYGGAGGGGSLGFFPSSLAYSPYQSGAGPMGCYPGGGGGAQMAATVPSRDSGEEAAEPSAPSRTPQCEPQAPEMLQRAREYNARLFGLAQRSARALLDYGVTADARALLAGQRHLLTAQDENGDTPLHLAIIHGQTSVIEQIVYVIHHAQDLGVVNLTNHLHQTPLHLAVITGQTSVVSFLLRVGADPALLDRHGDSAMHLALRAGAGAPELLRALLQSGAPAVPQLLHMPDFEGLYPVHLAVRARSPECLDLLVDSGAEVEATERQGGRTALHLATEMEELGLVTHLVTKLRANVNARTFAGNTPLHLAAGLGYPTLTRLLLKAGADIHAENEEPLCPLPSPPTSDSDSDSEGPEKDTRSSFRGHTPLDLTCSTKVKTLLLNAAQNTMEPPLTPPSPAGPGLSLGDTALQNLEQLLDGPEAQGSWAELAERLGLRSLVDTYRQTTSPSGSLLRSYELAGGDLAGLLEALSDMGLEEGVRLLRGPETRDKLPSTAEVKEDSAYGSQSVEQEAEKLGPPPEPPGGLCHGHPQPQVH
T1 sequence (Q04206 whole entry, looked up): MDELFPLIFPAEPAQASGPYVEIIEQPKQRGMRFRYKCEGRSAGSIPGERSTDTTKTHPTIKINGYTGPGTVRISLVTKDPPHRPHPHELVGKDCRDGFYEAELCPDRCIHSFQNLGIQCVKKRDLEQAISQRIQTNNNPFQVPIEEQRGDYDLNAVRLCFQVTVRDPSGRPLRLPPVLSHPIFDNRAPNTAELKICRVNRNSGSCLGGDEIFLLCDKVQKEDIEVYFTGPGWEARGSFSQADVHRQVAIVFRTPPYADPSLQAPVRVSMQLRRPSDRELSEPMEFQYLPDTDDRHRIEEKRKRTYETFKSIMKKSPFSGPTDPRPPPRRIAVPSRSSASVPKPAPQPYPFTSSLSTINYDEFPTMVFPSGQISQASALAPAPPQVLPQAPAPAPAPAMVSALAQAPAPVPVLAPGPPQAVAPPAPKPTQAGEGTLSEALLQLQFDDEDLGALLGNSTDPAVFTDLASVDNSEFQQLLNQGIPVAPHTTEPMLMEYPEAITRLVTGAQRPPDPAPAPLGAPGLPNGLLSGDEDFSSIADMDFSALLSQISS

Compound | Ratio [1] | Ratio [2] | Ratio [3]
COC(=O)C[C@H]1[C@]2(C)C[C@]3(O)[C@@](O)([C@@H](OC(=O)C(C)C)[C@]45OC6(C)O[C@H]([C@H](OC(C)=O)[C@]78C[C@@]74[C@@H](OC(C)=O)C(=O)O[C@H]8c4ccoc4)[C@]5(O6)[C@]13C)[C@H]2OC(C)=O | 0.12 | 0.32 | 0.35
CCC1=C[C@@H]2[C@](C)([C@@H](OC(C)=O)c3ccoc3)[C@@H](OC(C)=O)[C@@H](OC(C)=O)[C@@]34OC(=O)O[C@@]23[C@H](O1)[C@@]1(O)[C@@H](O)[C@@]2(C)C[C@@]1(O)[C@@]4(C)[C@H]2CC(=O)OC | 0.16 | 0.14 | 0.26
CCC(=O)O[C@@H]1[C@@]2(O)[C@@H](OC(C)=O)[C@@]3(C)C[C@]24OC2(C)O[C@]15[C@@H]1CC(=O)O[C@@H](c6ccoc6)[C@]1(C)[C@@H](OC(C)=O)[C@@H](O)[C@]5(O2)[C@]4(COC(C)=O)[C@H]3CC(=O)OC | 0.18 | 0.26 | 0.32
CC/C(O)=C1/C(=O)O[C@@H]2[C@@]3(O)[C@@H](OC(C)=O)[C@@]4(C)C[C@]35OC3(C)O[C@]26[C@H]1[C@](C)([C@@H](OC(C)=O)c1ccoc1)[C@@H](OC(C)=O)[C@@H](O)[C@]6(O3)[C@]5(COC(C)=O)[C@H]4CC(=O)OC | 0.23 | 0.3 | 0.35
COC(=O)[C@H](OC(C)=O)[C@H]1[C@]2(C)C[C@]3(O)[C@@](O)([C@@H](OC(=O)C(C)C)[C@]45OC6(C)O[C@H]([C@H](O)[C@]78C[C@@]74[C@@H](OC(C)=O)C(=O)O[C@H]8c4ccoc4)[C@]5(O6)[C@]13C)[C@H]2OC(C)=O | 0.05 | 0.1 | 0.1
CCC12C[C@@H]3[C@](C)([C@@H](OC(C)=O)c4ccoc4)[C@@H](OC(C)=O)[C@@H](OC(C)=O)[C@@]4(O)[C@]3(O1)[C@H](O2)[C@@]1(O)[C@@H](OC(C)=O)[C@@]2(C)C[C@@]1(O)[C@]41COC(=O)C[C@@H]21 | 0.16 | 0.26 | 0.31
CCC12C[C@@H]3[C@](C)([C@@H](OC(C)=O)c4ccoc4)[C@@H](O)[C@@H](O)[C@@]4(O)[C@]3(O1)[C@H](O2)[C@@]1(OC(C)=O)[C@@H](OC(C)=O)[C@@]2(C)C[C@@]1(O)[C@]41COC(=O)C[C@@H]21 | 0.33 | 0.48 | 0.59
COC(=O)[C@H](O)[C@H]1[C@]2(C)C[C@]3(O)[C@@](O)([C@@H](OC(=O)C(C)C)[C@]45OC6(C)O[C@H]([C@H](OC(C)=O)[C@]78C[C@@]74[C@@H](OC(C)=O)C(=O)O[C@H]8c4ccoc4)[C@]5(O6)[C@]13C)[C@H]2OC(C)=O | 0.22 | 0.15 | 0.34
CC/C(O)=C1/C(=O)O[C@@H]2[C@@]3(O)[C@@H](OC(C)=O)[C@@]4(C)C[C@]35OC3(C)O[C@]26[C@H]1[C@](C)([C@@H](OC(C)=O)c1ccoc1)[C@@H](OC(=O)C(C)C)[C@@H](OC(=O)C(C)C)[C@]6(O3)[C@@]51COC(=O)C[C@@H]41 | 0.11 | 0.18 | 0.29
CC/C(O)=C1/C(=O)O[C@@H]2[C@@]3(OC(C)=O)[C@@H](OC(C)=O)[C@@]4(C)C[C@]35OC3(C)O[C@]26[C@H]1[C@](C)([C@@H](OC(C)=O)c1ccoc1)[C@@H](OC(C)=O)[C@@H](O)[C@]6(O3)[C@]5(COC(C)=O)[C@H]4CC(=O)OC | 0.23 | 0.33 | 0.45
COC(=O)[C@H](OC(C)=O)[C@H]1[C@]2(C)C[C@]3(O)[C@@](O)([C@@H](OC(=O)C(C)C)[C@]45OC6(C)O[C@H]([C@H](OC(C)=O)[C@]78C[C@@]74[C@@H](OC(C)=O)C(=O)O[C@H]8c4ccoc4)[C@]5(O6)[C@]13C)[C@H]2OC(C)=O | 0.37 | 0.55 | 0.62
COC(=O)C[C@H]1[C@]2(C)C[C@@]34OC5(C)O[C@]6([C@@H]7/C(=C(\C)O)C(=O)O[C@@H](c8ccoc8)[C@]7(C)[C@@H](OC(C)=O)[C@@H](O)[C@]6(O5)[C@]13COC(C)=O)[C@H](OC(C)=O)[C@@]4(OC(C)=O)[C@H]2OC(C)=O | 0.25 | 0.33 | 0.62
COC(=O)[C@H](OC(C)=O)[C@H]1[C@]2(C)C[C@]3(O)[C@@](O)([C@H]4OC(=O)[C@@H]5O[C@@H](c6ccoc6)[C@@]67C[C@@]56[C@]4(O)[C@](O)([C@H](OC(=O)C(C)C)[C@@H]7OC(C)=O)[C@]13C)[C@H]2OC(C)=O | 0.14 | 0.27 | 0.3
C[C@]12CCC(=O)C=C1CC[C@@H]1[C@@H]2[C@@H](O)C[C@@]2(C)[C@H]1CC[C@]2(O)C(=O)CO | 0.29 | 0.37 | 0.6
COC(=O)[C@H](O)[C@H]1[C@]2(C)C[C@]3(O)[C@@](O)([C@H]4OC5(C)C[C@@H]6[C@](C)([C@@H](OC(C)=O)c7ccoc7)[C@@H](OC(C)=O)[C@@H](OC(C)=O)[C@@](O)([C@@]64O5)[C@]13C)[C@H]2O | 0.33 | 0.2 | 0.56
CC(=O)O[C@@H]1[C@H](OC(C)=O)[C@@](C)([C@@H](OC(C)=O)c2ccoc2)[C@H]2CC3(C)O[C@@H]4[C@@]5(OC(C)=O)[C@@H](OC(C)=O)[C@@]6(C)C[C@@]5(O)[C@]5(COC(=O)C[C@@H]65)[C@]1(O)[C@@]24O3 | 0.25 | 0.27 | 0.42
CCC12C[C@@H]3[C@](C)([C@@H](OC(C)=O)c4ccoc4)[C@@H](OC(C)=O)[C@@H](OC(C)=O)[C@@]4(O)[C@]3(O1)[C@H](O2)[C@@]1(OC(C)=O)[C@@H](OC(C)=O)[C@@]2(C)C[C@@]1(O)[C@@]4(C)[C@H]2CC(=O)OC | 0.61 | 0.39 | 0.75
CCC12C[C@@H]3[C@](C)([C@@H](OC(C)=O)c4ccoc4)[C@@H](OC(C)=O)[C@@H](OC(C)=O)[C@@]4(O)[C@]3(O1)[C@H](O2)[C@@]1(O)[C@@H](OC(C)=O)[C@@]2(C)C[C@@]1(O)[C@@]4(C)[C@H]2CC(=O)OC | 0.12 | 0.08 | 0.17
COC(=O)C[C@H]1[C@]2(C)C[C@]3(O)[C@@](OC(C)=O)([C@H]4OC5(C)C[C@@H]6[C@](C)([C@@H](OC(C)=O)c7ccoc7)[C@@H](OC(C)=O)[C@@H](OC(C)=O)[C@@](O)([C@@]64O5)[C@]13COC(C)=O)[C@H]2OC(C)=O | 0.23 | 0.34 | 0.8
CCC12C[C@@H]3[C@](C)([C@@H](OC(C)=O)c4ccoc4)[C@@H](OC(C)=O)[C@@H](OC(C)=O)[C@@]4(O)[C@]3(O1)[C@H](O2)[C@@]1(OC(C)=O)[C@@H](OC(C)=O)[C@@]2(C)C[C@@]1(O)[C@]41COC(=O)C[C@@H]21 | 0.09 | 0.34 | 0.31
CC/C(O)=C1/C(=O)O[C@@H]2[C@@]3(O)[C@@H](OC(C)=O)[C@@]4(C)C[C@]35OC3(C)O[C@]26[C@H]1[C@](C)([C@@H](OC(C)=O)c1ccoc1)[C@@H](OC(C)=O)[C@@H](OC(C)=O)[C@]6(O3)[C@]5(COC(C)=O)[C@H]4CC(=O)OC | 0.13 | 0.27 | 0.45
CCC12C[C@@H]3[C@](C)([C@@H](OC(C)=O)c4ccoc4)[C@@H](OC(C)=O)[C@@H](OC(C)=O)[C@@]4(O)[C@]3(O1)[C@H](O2)[C@@]1(OC(C)=O)[C@@H](OC(C)=O)[C@@]2(C)C[C@@]1(O)[C@@]4(COC(C)=O)[C@H]2CC(=O)OC | 0.36 | 0.38 | 0.53
COC(=O)C[C@H]1[C@]2(C)C[C@]3(O)[C@@](O)([C@H]4OC(C)=C[C@@H]5[C@](C)([C@@H](OC(C)=O)c6ccoc6)[C@@H](OC(C)=O)[C@@H](OC(C)=O)[C@]6(OC(=O)O[C@]546)[C@]13C)[C@H]2O | 0.69 | 0.57 | 0.86
CCC12C[C@@H]3[C@](C)([C@@H](OC(C)=O)c4ccoc4)[C@@H](O)[C@@H](OC(C)=O)[C@@]4(O)[C@]3(O1)[C@H](O2)[C@@]1(OC(C)=O)[C@@H](O)[C@@]2(C)C[C@@]1(O)[C@@]4(C)[C@H]2[C@@H](O)C(=O)OC | 0.1 | 0.23 | 0.3
CC(=O)O[C@@H]1[C@H](OC(C)=O)[C@@](C)([C@@H](OC(C)=O)c2ccoc2)[C@H]2CC3(C(C)C)O[C@@H]4[C@@]5(OC(C)=O)[C@@H](OC(C)=O)[C@@]6(C)C[C@@]5(O)[C@]5(COC(=O)C[C@@H]65)[C@]1(O)[C@@]24O3 | 0.17 | 0.25 | 0.3
COC(=O)[C@H](OC(C)=O)[C@H]1[C@]2(C)C[C@]3(O)[C@@](OC(=O)C(C)C)([C@H]4OC5(C)O[C@@]6([C@H](O)[C@H](OC(C)=O)[C@]78C[C@]7([C@@H](OC(C)=O)C(=O)O[C@H]8c7ccoc7)[C@@]46O5)[C@]13C)[C@H]2OC(C)=O | 0.13 | 0.05 | 0.24
COC(=O)[C@H](OC(C)=O)[C@H]1[C@]2(C)C[C@]3(O)[C@@](OC(=O)C(C)C)([C@H]4OC5(C)O[C@@]6([C@H](O)[C@H](O)[C@]78C[C@]7([C@@H](OC(C)=O)C(=O)O[C@H]8c7ccoc7)[C@@]46O5)[C@]13C)[C@H]2OC(C)=O | 0.09 | 0.32 | 0.44
COC(=O)C[C@H]1[C@]2(C)C[C@]3(O)[C@@](OC(C)=O)([C@H]4OC5(C)C[C@@H]6[C@](C)([C@@H](OC(C)=O)c7ccoc7)[C@@H](OC(C)=O)[C@@H](OC(C)=O)[C@@](O)([C@@]64O5)[C@]13C)[C@H]2OC(C)=O | 0.21 | 0.33 | 0.32
COC(=O)C[C@H]1[C@]2(C)C[C@]3(O)[C@@](O)([C@@H](OC(=O)C(C)C)[C@]45OC6(C)O[C@H]([C@H](O)[C@]78C[C@@]74[C@@H](OC(C)=O)C(=O)O[C@H]8c4ccoc4)[C@]5(O6)[C@]13C)[C@H]2OC(C)=O | 0.1 | 0.1 | 0.17
